Source: PubChem BioAssay (NCI)
Where “and” joins values, the source holds several entries; their conditions need not be identical. Equal entries are not always repeated.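 The compound was tested at five concentrations on cells cultured in 96-well plates, with a 48-hour exposure period. At the GI50, growth is halved. TGI denotes the concentration required for complete inhibition of growth.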 *1 amine or outer side, *2 acyl side, *3 side chain or, on linkers, in order; H or OH if unused. Where a SMILES comes first, the peptide text is derived from it. [ ]: non-standard residue; d: D form. The star is where a group is joined. ξ: configuration not given here. X11 = CCC(=O)CC(O)CC(C)CC(N[*:1])C(=O)[*:2]; ξLeu(3ξ-OH) = CC(C)C(O)C(N)C(=O)O; ξPro(4ξ-Me) = CC1CNC(C(=O)O)C1; X10 = CCC(C)/C=C/C(=O)*; Aib = CC(C)(N)C(=O)O; X12 = CC(CN(C)C)N*; βAla = NCCC(=O)O

How the values were obtained:
Experiment in all cases: inhibition of tumour cell growth, NCI panel, 48 h
[1] = system: HOP-62 NSCLC
[2] = system: RPMI-8226 leukemia
[3] = system: MDA-MB-231 breast
[4] = system: HCC-2998 colon
[5] = system: UO-31 renal
[6] = system: HS 578T breast
[7] = system: SF-268 CNS
[8] = system: PC-3 prostate
[9] = system: A498 renal
[10] = system: BT-549 breast
[11] = system: KM12 colon
[12] = system: TK-10 renal
[13] = system: SW-620 colon
[14] = system: HL-60(TB) leukemia
[15] = system: OVCAR-4 ovarian
[16] = system: NCI-H460 lung
[17] = system: UACC-62 melanoma
[18] = system: NCI-H522 lung
[19] = system: LOX IMVI melanoma
[20] = system: SR leukemia
[21] = system: HCT-116 colon
[22] = system: MALME-3M melanoma
[23] = system: U251 CNS
[24] = system: M14 melanoma
[25] = system: SK-OV-3 ovarian
[26] = system: MDA-MB-435
[27] = system: SK-MEL-5 melanoma
[28] = system: CCRF-CEM leukemia
[29] = system: SF-539 CNS
[30] = system: MCF7 breast
[31] = system: OVCAR-8 ovarian
[32] = system: IGROV1 ovarian
[33] = system: EKVX NSCLC
[34] = system: NCI-H226 lung
[35] = system: SNB-75 CNS
[36] = system: DU-145 prostate
[37] = system: 786-0 renal
[38] = system: MOLT-4 leukemia
[39] = system: UACC-257 melanoma
[40] = system: OVCAR-3 ovarian
[41] = system: NCI/ADR-RES ovarian
[42] = system: HCT-15 colon
[43] = system: SN12C renal
[44] = system: A549 NSCLC
[45] = system: SNB-19 CNS
[46] = system: SF-295 CNS
[47] = system: COLO 205 colon
[48] = system: K-562 leukemia
[49] = system: NCI-H23 lung
[50] = system: HT29 colon
[51] = system: SK-MEL-2 melanoma
[52] = system: HOP-92 NSCLC
[53] = system: ACHN renal
[54] = system: OVCAR-5 ovarian
[55] = system: RXF 393 renal
[56] = system: SK-MEL-28 melanoma
[57] = system: CAKI-1 renal

## COC(=O)CC12CC(NC(=O)c3csc([C@@H](C[C@H](C(C)C)N(C)C(=O)[C@@H](NC(=O)[C@H]4CCCCN4C)C(C)C)OC(C)=O)n3)(C1)C2
[1]
  GI50: 4.98 nM and 8.38 nM
  TGI: > 33300 nM
[2]
  GI50: 3.51 nM and 12.9 nM
  TGI: > 33300 nM
[3]
  GI50: 6.61 nM and 15.2 nM
  TGI: 95.8 nM and 515 nM
[4]
  GI50: 30.3 nM and 14.8 nM
  TGI: > 33300 nM
[5]
  TGI: > 33300 nM
[6]
  GI50: 3.96 nM and 9.02 nM
  TGI: > 33300 nM
[7]
  GI50: 7.4 nM and 20.4 nM
  TGI: > 33300 nM
[8]
  GI50: 3.96 nM and 10.1 nM
  TGI: > 33300 nM
[9]
  GI50: 3.84 nM and 5.45 nM
  TGI: 22.4 nM
[10]
  GI50: 5.75 nM and 22 nM
  TGI: 246 nM and 253 nM
[11]
  GI50: 4.41 nM and 9.39 nM
  TGI: > 33300 nM
[12]
  GI50: 415 nM
  TGI: > 33300 nM
[13]
  GI50: 3.5 nM and 10.2 nM
  TGI: > 33300 nM
[14]
  GI50: 2.82 nM and 6.85 nM
  TGI: 11.1 nM and 18.1 nM
[15]
  GI50: 455 nM and 326 nM
  TGI: > 33300 nM
[16]
  GI50: 3.22 nM and 11.6 nM
  TGI: > 33300 nM
[17]
  GI50: 3.25 nM and 6.22 nM
  TGI: > 33300 nM
[18]
  GI50: 1.07 nM and 3.33 nM
  TGI: 5.93 nM and 14.9 nM
[19]
  GI50: 4.46 nM and 12.1 nM
  TGI: > 33300 nM
[20]
  GI50: 1.87 nM and 3.33 nM
  TGI: > 33300 nM
[21]
  GI50: 3.37 nM and 7.78 nM
  TGI: > 33300 nM
[22]
  GI50: 4.91 nM
[23]
  GI50: 3.6 nM and 13 nM
  TGI: > 33300 nM
[24]
  GI50: 3.55 nM
[25]
  GI50: 4.39 nM and 10.5 nM
  TGI: > 33300 nM
[26]
  GI50: 0.341 nM and 3.33 nM
  TGI: 1.65 nM and 4.49 nM
[27]
  GI50: 1.91 nM and 4.12 nM
  TGI: 48.7 nM and 74 nM
[28]
  GI50: 3.6 nM and 7.18 nM
  TGI: > 33300 nM
[29]
  GI50: 2.89 nM and 7.59 nM
  TGI: 19.8 nM and 26.9 nM
[30]
  GI50: 2.89 nM and 4.05 nM
  TGI: > 33300 nM
[31]
  GI50: 5.45 nM and 13.1 nM
  TGI: > 33300 nM
[32]
  GI50: 9.17 nM and 16.2 nM
  TGI: > 33300 nM
[33]
  GI50: 9.49 nM and 22.9 nM
  TGI: > 33300 nM
[34]
  GI50: 4.92 nM and 21.7 nM
[35]
  GI50: 2.65 nM
[36]
  GI50: 3.52 nM and 8.25 nM
[37]
  GI50: 6.06 nM and 14 nM
  TGI: > 33300 nM
[38]
  GI50: 6.15 nM and 14.3 nM
  TGI: > 33300 nM
[39]
  GI50: 23700 nM
  TGI: > 33300 nM
[40]
  GI50: 2.9 nM and 3.33 nM
[41]
  GI50: 65.9 nM and 122 nM
[42]
  GI50: 18.3 nM and 25.4 nM
  TGI: > 33300 nM
[43]
  GI50: 4.46 nM and 20.2 nM
  TGI: > 33300 nM
[44]
  GI50: 7.77 nM and 13 nM
  TGI: > 33300 nM
[45]
  GI50: 3.1 nM and 11.4 nM
  TGI: > 33300 nM
[46]
  GI50: 3.27 nM and 9.42 nM
  TGI: > 33300 nM
[47]
  GI50: 2.7 nM and 6.84 nM
  TGI: 9.61 nM and 40.1 nM
[48]
  GI50: 1.94 nM and 3.33 nM
  TGI: > 33300 nM
[49]
  GI50: 9.8 nM and 16.7 nM
  TGI: > 33300 nM
[50]
  GI50: 3.64 nM and 5.5 nM
  TGI: > 33300 nM
[51]
  GI50: 4.41 nM and 9.55 nM
  TGI: > 33300 nM
[52]
  GI50: 17.4 nM
  TGI: 4730 nM
[53]
  GI50: 26 nM
  TGI: > 33300 nM
[54]
  GI50: 4.9 nM and 16.5 nM
  TGI: > 33300 nM

## COC(=O)Nc1nc2ccc(C(=O)C3CC3)cc2[nH]1
[1]
  GI50: 523 nM
  TGI: > 42200 nM
[2]
  GI50: 219 nM
  TGI: 696 nM
[3]
  GI50: 1280 nM
  TGI: > 46100 nM
[4]
  GI50: 771 nM
[5]
  GI50: 3210 nM
  TGI: > 63100 nM
[6]
  GI50: 280 nM
  TGI: 853 nM
[7]
  GI50: 573 nM
  TGI: 31300 nM
[55]
  GI50: 345 nM
[8]
  GI50: 346 nM
  TGI: > 100000 nM
[9]
  GI50: 421 nM
[10]
  GI50: 1010 nM
  TGI: > 30700 nM
[11]
  GI50: 283 nM
  TGI: 1680 nM
[12]
  GI50: 1380 nM
  TGI: 47200 nM
[13]
  GI50: 297 nM
  TGI: > 100000 nM
[14]
  GI50: 448 nM
  TGI: > 100000 nM
[15]
  GI50: 551 nM
  TGI: > 100000 nM
[16]
  GI50: 363 nM
  TGI: 20700 nM
[17]
  GI50: 487 nM
  TGI: > 100000 nM
[18]
  GI50: 426 nM
  TGI: 16400 nM
[56]
  GI50: 506 nM
  TGI: > 63700 nM
[19]
  GI50: 720 nM
  TGI: > 100000 nM
[20]
  GI50: 455 nM
  TGI: > 100000 nM
[21]
  GI50: 438 nM
[22]
  GI50: 392 nM
  TGI: > 100000 nM
[23]
  GI50: 426 nM
  TGI: > 100000 nM
[24]
  GI50: 276 nM
[25]
  GI50: 412 nM
  TGI: > 62000 nM
[26]
  GI50: 134 nM
  TGI: 324 nM
[27]
  GI50: 385 nM
  TGI: 6230 nM
[28]
  GI50: 332 nM
[29]
  GI50: 311 nM
  TGI: 3060 nM
[30]
  GI50: 331 nM
  TGI: > 56100 nM
[31]
  GI50: 668 nM
  TGI: > 100000 nM
[32]
  GI50: 290 nM
  TGI: 18200 nM
[33]
  GI50: 554 nM
  TGI: > 100000 nM
[34]
  GI50: 423 nM
  TGI: 30200 nM
[57]
  GI50: 305 nM
  TGI: > 51600 nM
[36]
  GI50: 256 nM
  TGI: 1110 nM
[37]
  GI50: 581 nM
  TGI: 30500 nM
[38]
  GI50: 1250 nM
  TGI: > 100000 nM
[39]
  GI50: 417 nM
  TGI: > 100000 nM
[40]
  GI50: 207 nM
  TGI: 448 nM
[41]
  GI50: 329 nM
  TGI: 9820 nM
[42]
  GI50: 385 nM
  TGI: > 100000 nM
[43]
  GI50: 717 nM
  TGI: > 100000 nM
[44]
  GI50: 452 nM
  TGI: > 100000 nM
[45]
  GI50: 880 nM
  TGI: > 56500 nM
[46]
  GI50: 248 nM
[47]
  GI50: 392 nM
  TGI: 10400 nM
[48]
  GI50: 417 nM
  TGI: > 100000 nM
[49]
  GI50: 470 nM
  TGI: > 27600 nM
[50]
  GI50: 295 nM
  TGI: 6310 nM
[51]
  GI50: 3310 nM
  TGI: > 70100 nM
[53]
  GI50: 790 nM
  TGI: > 100000 nM
[54]
  GI50: 3250 nM
  TGI: > 56100 nM

## CCC(=O)CC(O)CC(C)CC(NC(=O)C1CC(C)CN1C(=O)/C=C/C(C)CC)C(=O)NC(C(=O)NC(C)(C)C(=O)NC(CC(C)C)C(=O)NC(CC(C)C)C(=O)NC(C)(C)C(=O)NC(C)(C)C(=O)NCCC(=O)NC(C)CN(C)C)C(O)C(C)C (stereo not drawn) (X10-[ξPro(4ξ-Me)][X11][ξLeu(3ξ-OH)][Aib]LL[Aib][Aib][βAla]-X12; configuration not given here)
[10]
  TGI: 11300 nM
[34]
  TGI: 3620 nM
[39]
  TGI: 17000 nM
[49]
  TGI: 7700 nM
[52]
  TGI: 1090 nM
